Read-outs that look alike come from different tables or passages of the source.
Legend:
mice = conditions: for behaviour following injection: mice (20 g), 200 mg/Kg
Protocol: Two other mice (20 g) received dichlorotaurine (0.1 mL=100 mg/Kg) s.c. at 60 min intervals for three hours.

[1] = Stability on storage and in water or solvents (TLC and NMR monitoring); assay type: physicochemical
Protocol: Taurine (1.5 g) was suspended in a mixture of methanol (50 mL) and 4 M aqueous hydrochloric acid (25 mL). To this was added in small aliquots 4-6% aqueous sodium hypochlorite (40 mL) with stirring. The taurine dissolved with evolution of gentle heat. After 2 h the solution was concentrated (below 30° C.) to a small volume. Ethanol (200 mL) was added and the precipitated sodium chloride was removed by filtration. This procedure was repeated until no more precipitate formed. After concentration to a small volume of oily residue, 50/50 methanol-ethyl acetate (100 mL) was added, and the mixture was again filtered to remove residual sodium chloride. Upon reconcentration, the residue was treated with 0.04 M aqueous hydrochloric acid in acetone (25 mL). Slow concentration yielded white, iridescent plates, (0.7 g). […] Detection was by spraying with 2% KI-starch (yellow-brown) followed by ethanolic ninhydrin (faintly pink); M.P. 148° C. UV (λmax) 310 nm (ε1.851×10^2, 95% ethanol); ^1Hmr (D2O) 3.05-3.2(2H, m) and 3.95-4.05(2H, m); MS (es−): 191.9(18.76%), 193.8 (13.41%), 195.8(2.83%).
(§1) The chlorinaton and desalting methodology was essentially similar to that for taurine. […] Final isolation was from 50/50 (^v/v) diethylether-methanol plus dichloromethane, followed by slow evaporation at approximately 0-4° C. M.P. 197° C.; UV: λmax 308 (ε1.486×10^2, 95% ethanol); ^1Hmr (D2O) δ: 2.05-2.15 (2H, m, αCH2), 2.95-3.05 (2H, m, βCH2), 3.9-4.0 (2H, m, γCH2); MS (es−): 205.9(1.4%), 207.9(0.88%), 210.0(0.31%).
N,N-dichloro-GABA: UV: λmax 308 nm (ε2.974×10^2, 95% ethanol); ^1Hmr (CDCl3) δ: 1.95-2.05 (2H, m,αCH2), 2.4-2.5 (2H, m, βCH2), 3.6-3.75 (2H, m, γCH2). Decomposition in water was about 50% in 3 h at room temperature (TLC monitored). […]
The procedure for the synthesis of N′N′-dichloro-leucine was identical to that for the dichloroGABA. The product is a pale-yellow oil. When stored in dichloromethane, at −10° C.; the compound readily decomposed with an approximate half-life of 1 h.
From the above Examples it is apparent that dichlorination of ω-amino acids yields products which vary considerably in their stability. […] The most important precaution required for stable storage is the removal of all traces of water. […] A yield of between 30-60% was obtained, which can be improved by more efficiently exploiting the fact that primary amines are far less soluble than their chlorinated products in non-polar solvents. Those of ordinary skill in the art will recognize that the methods for isolation of the chlorinated amino acids described here can be extended to other α-carboxyl amino acids, as well as peptides and proteins.

[2] = Solubility in nonpolar solvents; assay type: physicochemical; conditions: compared with taurine homologue
Protocol: as §1

[3] = test system: rat brain amino acid profile; experiment: Effect on rat brain amino acid profile; assay type: in vivo, Sprague-Dawley rats; conditions: for GABA tissue content / GLUTAMATE tissue content / TAURINE tissue content: 10-30 min prior to sacrifice; for GABA tissue content / GLUTAMATE tissue content / TAURINE tissue content / RATIO GLU/TAU / RATIO GLY/GLU: average of three rats; for % change GABA / % change GLUTAMATE / % change RATIO GLU/TAU / % change RATIO GLY/GLU / % change TAURINE: dichlorotaurine vs taurine (control)
Protocol: Three Sprague-Dawley rats were each injected with taurine (200 mg/kg) (control), and another three Sprague-Dawley rats were each administered dichlorotaurine (200 mg/kg): one at 10 min (i.p.), one at 20 min (i.p.) and one at 30 min (i.v.) prior to sacrifice. The animals were anesthetized with ether and then sacrificied by cardiac perfusion with phosphate buffered saline for 5 min, before the brains were removed at room temp.
Brain regions were dissected by hand on a glass cold plate (4-6° C.). The samples were homogenized in 9× weight by volume of water, then perchloric acid was added to a final concentration of 0.6 M to precipitate proteins. Samples (20 μL) were neutralized with 15 μL 2M KHCO3. The extracts were centrifuged and supernatants were diluted with water 1:100. Amino acid analysis was performed by derivatization with o-phthaldialdehyde followed by liquid chromatography (Varian LC 5000 and Schoeffel FS 970 fluorometer). […] Identification and quantification by peak height was calibrated against a standard amino acid solution.
Data are shown in Table1, below, where each taurine (control) value and dichlorotaurine value is the average of the three respective rats. The amino acid values represent endogenous neural tissue content and not extracellular (release) concentrations. The most pronounced effects of the dichlorotaurine are on the cortex-hippocampus. The data are interpreted as directed towards reduced (↓) excitability. Moreover, the data provide evidence that administration of dichlorotaurine attenuates the pathological consequences of excessive glutamate release, which is known to occur under clinical conditions such as, for example, epilepsy, intractable pain disorders, Huntington's Disease, Parkinson's Disease, and abnormalities associated with CNS trauma (e.g., stroke, spinal cord injury, impact trauma).

[4] = frontal cortex, rats, 200 mg/kg
[5] = mice, 100 mg/Kg s.c. at 60 min intervals for three hours

## O=S(=O)(O)CCCN(Cl)Cl [dichlorohomotaurine, N,N-dichlorohomotaurine]
mice
  behaviour following injection: almost indistinguishable from that observed with the taurine homologue
[1]
  hygroscopicity: Fairly hygroscopic
[1]; humid atmosphere, compared with taurine homologue
  stability in a humid atmosphere: more unstable than its taurine homologue
[1]; in water, read-out: t1/2 of decomposition to homotaurine (converted)
  half-life: 24 h
[2]
  solubility in nonpolar solvents: more soluble in nonpolar solvents
other
  melting point: 197 °C

## O=C(O)CCCN(Cl)Cl [N,N-dichloro-GABA, N,N-dichloro-γ-aminobutyric Acid]
[1]
  relative stability when in contact with water: the least stable
[1]; 3 h at room temperature, TLC monitored
  Decomposition in water: about 50%

## O=C(O)CCN(Cl)Cl [N,N-dichloro-β-alanine, N′N′-dichloro-β-alanine]
[1]
  relative stability in water or 95% ethanol: More stable than N,N-dichloro-GABA

## NCCS(=O)(=O)O [taurine, reference compound]
mice
  behaviour following injection: normal behaviour
[3]; brain stem, rats, 200 mg/kg
  GABA tissue content: 2.25 nmoles/mg wet weight
  GLUTAMATE tissue content: 8.20 nmoles/mg wet weight
  TAURINE tissue content: 2.29 nmoles/mg wet weight
  RATIO GLU/TAU: 3.73
  RATIO GLY/GLU: 1.30
[3]; cerebellum, rats, 200 mg/kg
  GABA tissue content: 2.25 nmoles/mg wet weight
  GLUTAMATE tissue content: 11.32 nmoles/mg wet weight
  TAURINE tissue content: 5.38 nmoles/mg wet weight
  RATIO GLU/TAU: 2.15
  RATIO GLY/GLU: 0.48
[3]; [4]
  GABA tissue content: 2.28 nmoles/mg wet weight
  GLUTAMATE tissue content: 15.04 nmoles/mg wet weight
  TAURINE tissue content: 7.67 nmoles/mg wet weight
  RATIO GLU/TAU: 1.98
  RATIO GLY/GLU: 0.28
[3]; hippocampus, rats, 200 mg/kg
  GABA tissue content: 2.83 nmoles/mg wet weight
  GLUTAMATE tissue content: 13.82 nmoles/mg wet weight
  TAURINE tissue content: 7.38 nmoles/mg wet weight
  RATIO GLU/TAU: 1.91
  RATIO GLY/GLU: 0.36

## CC(C)C[C@@H](C(=O)O)N(Cl)Cl [N′N′-dichloro-leucine, N,N-dichloro-L-leucine, reference compound]
[1]; in contact with water
  relative stability when in contact with water: the least stable
[1]; stored in dichloromethane at −10° C., read-out: half-life of decomposition (converted)
  half-life: ~1 h

## O=S(=O)(O)CCN(Cl)Cl [dichlorotaurine, N′N′-dichlorotaurine]
mice; male mice (20 g), 200 mg/Kg i.p.
  onset of severe ataxia, laboured breathing and grooming behaviour towards the site of injection: ≤ 5 min
mice
  behaviour following injection: very quiet, showed strongly reduced responsiveness to environmental stimuli, and reduced mobility
mice; [5]
  Onset of sedation following the first injection: 5 min
  effect of the two subsequent injections on behaviour: did not aggravate nor modify the tranquil behaviour
  time after last injection to start of return to normal behaviour: Two to three hours
mice; mouse, in vivo, sc, 100 mg/kg
  Observation for the next 24 h: did not reveal any abnormalities
[1]
  relative stability when in contact with water: the most
  stability when dry: reasonably stable for up to a month
  storage stability: stable for at least one month without appreciable decomposition
[1]; 95% ethanol, over 48 h
  decomposition in 95% ethanol: little or no decomposition
[1]; water, ambient temperature, TLC and NMR monitoring
  stable in water: at least 3 h
[3]; GABA changes
  interpretation: ↓ excitability
[3]; GLUTAMATE changes
  interpretation: ↓ excitability
[3]; RATIO GLU/TAU changes
  interpretation: ↓ excitability
[3]; RATIO GLY/GLU changes
  interpretation: ↓ excitability
[3]; TAURINE changes
  interpretation: ↓ excitability
[3]; brain stem
  % change GABA: — (±15% considered non-significant: no change)
  % change GLUTAMATE: — (±15% considered non-significant: no change)
  % change RATIO GLU/TAU: −33%
  % change RATIO GLY/GLU: +19%
  % change TAURINE: —* (±15% considered non-significant: no change)
[3]; brain stem, rats, 200 mg/kg
  GABA tissue content: 2.32 nmoles/mg wet weight
  GLUTAMATE tissue content: 7.19 nmoles/mg wet weight
  TAURINE tissue content: 2.63 nmoles/mg wet weight
  RATIO GLU/TAU: 2.50
  RATIO GLY/GLU: 1.55
[3]; cerebellum
  % change GABA: — (±15% considered non-significant: no change)
  % change GLUTAMATE: — (±15% considered non-significant: no change)
  % change RATIO GLU/TAU: — (±15% considered non-significant: no change)
  % change RATIO GLY/GLU: — (±15% considered non-significant: no change)
  % change TAURINE: — (±15% considered non-significant: no change)
[3]; cerebellum, rats, 200 mg/kg
  GABA tissue content: 1.97 nmoles/mg wet weight
  GLUTAMATE tissue content: 10.29 nmoles/mg wet weight
  TAURINE tissue content: 5.36 nmoles/mg wet weight
  RATIO GLU/TAU: 2.01
  RATIO GLY/GLU: 0.46
[3]; frontal cortex
  % change GABA: +29%
  % change GLUTAMATE: −20%
  % change RATIO GLU/TAU: −33%
  % change RATIO GLY/GLU: +42%
  % change TAURINE: +30%
[3]; [4]
  GABA tissue content: 2.93 nmoles/mg wet weight
  GLUTAMATE tissue content: 11.90 nmoles/mg wet weight
  TAURINE tissue content: 10.00 nmoles/mg wet weight
  RATIO GLU/TAU: 1.32
  RATIO GLY/GLU: 0.40
[3]; hippocampus
  % change GABA: +32%
  % change GLUTAMATE: — (±15% considered non-significant: no change)
  % change RATIO GLU/TAU: −24%
  % change RATIO GLY/GLU: +20%
  % change TAURINE: +52%
[3]; hippocampus, rats, 200 mg/kg
  GABA tissue content: 3.73 nmoles/mg wet weight
  GLUTAMATE tissue content: 15.76 nmoles/mg wet weight
  TAURINE tissue content: 11.22 nmoles/mg wet weight
  RATIO GLU/TAU: 1.45
  RATIO GLY/GLU: 0.43
[3]; rats, 200 mg/kg
  brain region of the most pronounced effects: cortex-hippocampus

— patent US6451761B1, “N′N′-dichlorinated omega-amino acids and uses thereof” (Queen's University at Kingston, priority 1999, dated 2002)
